Experimental data from patent publication US20230398130A1, “METHODS AND COMPOSITIONS FOR DIFFERENTIATING STEM CELLS” (Massachusetts Institute of Technology, priority 2020, published 2023).

Tests used:
[1] = test system: ISC-enriched organoids; experiment: Primary screen, 384-well 2.5-D organoid differentiation (ENR+CD, 6 days): carbachol-induced lysozyme secretion (LYZ.S); type: cell-based, murine; settings: for Dose.FC.LYZ.S (log 2 fold change) / Z.LYZ.S / SSMD.LYZ.S / Dose.FC.LYZ.S: primary screen; for Dose.FC.LYZ.S (log 2 fold change) / Dose.FC.LYZ.S (log 2 fold change, carbachol-induced lysozyme secretion): vs plate median; for Z.LYZ.S: standard z score; for SSMD.LYZ.S: strictly standardized mean difference; for Dose.FC.LYZ.S: FC vs plate median
Source text: (§1) High-throughput screening.

[2] = test system: ISC-enriched organoids; experiment: Primary screen, 384-well 2.5-D organoid differentiation (ENR+CD, 6 days, Target Selective Inhibitor Library, vs whole-plate median): ATP (CellTiter-Glo 3D, CTG); settings: for Dose.FC.CTG (log 2 fold change) / Dose.FC.CTG (log 2 fold change, ATP): vs plate median; for Z.CTG: standard z score; for SSMD.CTG: strictly standardized mean difference; for Dose.FC.CTG: FC vs plate median
[3] = test system: ISC-enriched organoids; experiment: Primary screen, 384-well 2.5-D organoid differentiation (ENR+CD, 6 days): basal lysozyme secretion (LYZ.NS); type: cell-based, murine; settings: for Dose.FC.LYZ.NS (log 2 fold change) / Dose.FC.LYZ.NS (log 2 fold change, basal lysozyme secretion): vs plate median; for SSMD.LYZ.NS: strictly standardized mean difference; for Dose.FC.LYZ.NS: FC vs plate median; for Z.LYZ.NS: standard z score
Source text: as §1

[4] = 1st of the 4 dose lines of the treatment (dose not given)
[5] = 2nd of the 4 dose lines of the treatment (dose not given)
[6] = 3rd of the 4 dose lines of the treatment (dose not given)
[7] = 4th of the 4 dose lines of the treatment (dose not given)
[8] = primary screen, 1st of the 4 dose lines of the treatment (dose not given)
[9] = primary screen, 2nd of the 4 dose lines of the treatment (dose not given)
[10] = primary screen, 3rd of the 4 dose lines of the treatment (dose not given)
[11] = primary screen, 4th of the 4 dose lines of the treatment (dose not given)

O=C(Nc1ccccc1-c1cn2c(CN3CCNCC3)csc2n1)c1cnc2ccccc2n1 [SRT1720]
Dose.FC.LYZ.S (log 2 fold change) ([1]; Dose 0.08 uM): 0.190
Dose.FC.LYZ.S (log 2 fold change) ([1]; Dose 0.40 uM): 0.099
Dose.FC.LYZ.S (log 2 fold change) ([1]; Dose 2.00 uM): 0.051
Dose.FC.LYZ.S (log 2 fold change) ([1]; Dose 10.00 uM): −0.193
Z.CTG (standard z score) ([2]; Dose 0.08 uM, primary screen): 1.264
Dose.FC.CTG (log 2 fold change) ([2]; Dose 0.08 uM, primary screen): 0.529
Z.CTG (standard z score) ([2]; Dose 0.40 uM, primary screen): 0.940
Dose.FC.CTG (log 2 fold change) ([2]; Dose 0.40 uM, primary screen): 0.394
Z.CTG (standard z score) ([2]; Dose 2.00 uM, primary screen): 0.810
Dose.FC.CTG (log 2 fold change) ([2]; Dose 2.00 uM, primary screen): 0.339
Z.CTG (standard z score) ([2]; Dose 10.00 uM, primary screen): −2.427
Dose.FC.CTG (log 2 fold change) ([2]; Dose 10.00 uM, primary screen): −1.016
Z.LYZ.NS (standard z score) ([3]; Dose 0.08 uM, primary screen): 1.495
Dose.FC.LYZ.NS (log 2 fold change) ([3]; Dose 0.08 uM, primary screen): 0.172
Z.LYZ.NS (standard z score) ([3]; Dose 0.40 uM, primary screen): 0.972
Dose.FC.LYZ.NS (log 2 fold change) ([3]; Dose 0.40 uM, primary screen): 0.112
Z.LYZ.NS (standard z score) ([3]; Dose 2.00 uM, primary screen): 0.613
Dose.FC.LYZ.NS (log 2 fold change) ([3]; Dose 2.00 uM, primary screen): 0.070
Z.LYZ.NS (standard z score) ([3]; Dose 10.00 uM, primary screen): −0.906
Dose.FC.LYZ.NS (log 2 fold change) ([3]; Dose 10.00 uM, primary screen): −0.104

CCN(CC)CC(=O)Nc1c(C)cccc1C [Lidocaine]
Z.LYZ.S [1, 4]: 0.537
Z.LYZ.S [1, 5]: 0.167
Z.LYZ.S [1, 6]: −0.244
Z.LYZ.S [1, 7]: −0.061
SSMD.LYZ.S [1, 4]: 0.448
SSMD.LYZ.S [1, 5]: 0.197
SSMD.LYZ.S [1, 6]: −0.268
SSMD.LYZ.S [1, 7]: −0.070
Z.CTG ([2]; Dose 0.08 uM, primary screen): −0.188
Z.CTG ([2]; Dose 0.40 uM, primary screen): −0.365
Z.CTG ([2]; Dose 2.00 uM, primary screen): 0.081
Z.CTG ([2]; Dose 10.00 uM, primary screen): −0.611
SSMD.CTG [2, 8]: −0.237
SSMD.CTG [2, 9]: −0.371
SSMD.CTG [2, 10]: 0.116
SSMD.CTG [2, 11]: −0.889
SSMD.LYZ.NS [3, 8]: 0.904
SSMD.LYZ.NS [3, 9]: 0.132
SSMD.LYZ.NS [3, 10]: 0.008
SSMD.LYZ.NS [3, 11]: 0.183

Clc1ccc(N/N=C(\c2ccccc2)c2ccccn2)nc1 [JIB-04]
Dose.FC.LYZ.S ([1]; Dose 0.08 uM): 0.203 log 2 fold change
Dose.FC.LYZ.S ([1]; Dose 0.40 uM): 0.084 log 2 fold change
Dose.FC.LYZ.S ([1]; Dose 2.00 uM): −0.056 log 2 fold change
Dose.FC.LYZ.S ([1]; Dose 10.00 uM): −0.085 log 2 fold change
Z.LYZ.S [1, 4]: 1.312
Z.LYZ.S [1, 5]: 0.545
Z.LYZ.S [1, 6]: −0.365
Z.LYZ.S [1, 7]: −0.552
SSMD.LYZ.S [1, 4]: 0.895
SSMD.LYZ.S [1, 5]: 0.407
SSMD.LYZ.S [1, 6]: −0.339
SSMD.LYZ.S [1, 7]: −0.195
Dose.FC.CTG ([2]; Dose 0.08 uM, primary screen): 0.254 log 2 fold change
Z.CTG ([2]; Dose 0.08 uM, primary screen): 0.607
Dose.FC.CTG ([2]; Dose 0.40 uM, primary screen): 0.108 log 2 fold change
Z.CTG ([2]; Dose 0.40 uM, primary screen): 0.258
Dose.FC.CTG ([2]; Dose 2.00 uM, primary screen): 0.092 log 2 fold change
Z.CTG ([2]; Dose 2.00 uM, primary screen): 0.219
Dose.FC.CTG ([2]; Dose 10.00 uM, primary screen): −0.181 log 2 fold change
Z.CTG ([2]; Dose 10.00 uM, primary screen): −0.433
SSMD.CTG [2, 8]: 0.552
SSMD.CTG [2, 9]: 0.331
SSMD.CTG [2, 10]: 0.282
SSMD.CTG [2, 11]: −0.531
Dose.FC.LYZ.NS ([3]; Dose 0.08 uM, primary screen): 0.178 log 2 fold change
Z.LYZ.NS ([3]; Dose 0.08 uM, primary screen): 1.549
Dose.FC.LYZ.NS ([3]; Dose 0.40 uM, primary screen): 0.030 log 2 fold change
Z.LYZ.NS ([3]; Dose 0.40 uM, primary screen): 0.264
Dose.FC.LYZ.NS ([3]; Dose 2.00 uM, primary screen): 0.006 log 2 fold change
Z.LYZ.NS ([3]; Dose 2.00 uM, primary screen): 0.048
Dose.FC.LYZ.NS ([3]; Dose 10.00 uM, primary screen): −0.153 log 2 fold change
Z.LYZ.NS ([3]; Dose 10.00 uM, primary screen): −1.330
SSMD.LYZ.NS [3, 8]: 0.941
SSMD.LYZ.NS [3, 9]: 0.239
SSMD.LYZ.NS [3, 10]: 0.042
SSMD.LYZ.NS [3, 11]: −0.845

Cl.O=C(O)Cc1cccc(OCCCN(Cc2cccc(C(F)(F)F)c2Cl)CC(c2ccccc2)c2ccccc2)c1 [GW3965 HCl]
Dose.FC.LYZ.S ([1]; Dose 0.08 uM): 0.091 log 2 fold change
Dose.FC.LYZ.S ([1]; Dose 0.40 uM): 0.074 log 2 fold change
Dose.FC.LYZ.S ([1]; Dose 2.00 uM): 0.179 log 2 fold change
Dose.FC.LYZ.S ([1]; Dose 10.00 uM): −0.047 log 2 fold change
Dose.FC.CTG ([2]; Dose 0.08 uM, primary screen): 0.138 log 2 fold change
Z.CTG ([2]; Dose 0.08 uM, primary screen): 0.330
Dose.FC.CTG ([2]; Dose 0.40 uM, primary screen): 0.201 log 2 fold change
Z.CTG ([2]; Dose 0.40 uM, primary screen): 0.481
Dose.FC.CTG ([2]; Dose 2.00 uM, primary screen): 0.229 log 2 fold change
Z.CTG ([2]; Dose 2.00 uM, primary screen): 0.546
Dose.FC.CTG ([2]; Dose 10.00 uM, primary screen): −0.078 log 2 fold change
Z.CTG ([2]; Dose 10.00 uM, primary screen): −0.186
Dose.FC.LYZ.NS ([3]; Dose 0.08 uM, primary screen): 0.059 log 2 fold change
Z.LYZ.NS ([3]; Dose 0.08 uM, primary screen): 0.516
Dose.FC.LYZ.NS ([3]; Dose 0.40 uM, primary screen): 0.002 log 2 fold change
Z.LYZ.NS ([3]; Dose 0.40 uM, primary screen): 0.013
Dose.FC.LYZ.NS ([3]; Dose 2.00 uM, primary screen): 0.077 log 2 fold change
Z.LYZ.NS ([3]; Dose 2.00 uM, primary screen): 0.673
Dose.FC.LYZ.NS ([3]; Dose 10.00 uM, primary screen): −0.009 log 2 fold change
Z.LYZ.NS ([3]; Dose 10.00 uM, primary screen): −0.080

CCCS(=O)(=O)Nc1ccc(F)c(C(=O)c2c[nH]c3ncc(-c4ccc(Cl)cc4)cc23)c1F [Vemurafenib (PLX4032, RG7204)]
Dose.FC.LYZ.S (log 2 fold change, carbachol-induced lysozyme secretion) ([1]; dose 0.08 uM): 0.120
Dose.FC.LYZ.S (log 2 fold change, carbachol-induced lysozyme secretion) ([1]; dose 0.40 uM): 0.150
Dose.FC.LYZ.S (log 2 fold change, carbachol-induced lysozyme secretion) ([1]; dose 2.00 uM): 0.055
Dose.FC.LYZ.S (log 2 fold change, carbachol-induced lysozyme secretion) ([1]; dose 10.00 uM): 0.022
Z.CTG (standard z score) ([2]; dose 0.08 uM): 0.297
Dose.FC.CTG (log 2 fold change, ATP) ([2]; dose 0.08 uM): 0.124
Z.CTG (standard z score) ([2]; dose 0.40 uM): −0.195
Dose.FC.CTG (log 2 fold change, ATP) ([2]; dose 0.40 uM): −0.082
Z.CTG (standard z score) ([2]; dose 2.00 uM): −0.014
Dose.FC.CTG (log 2 fold change, ATP) ([2]; dose 2.00 uM): −0.006
Z.CTG (standard z score) ([2]; dose 10.00 uM): 0.073
Dose.FC.CTG (log 2 fold change, ATP) ([2]; dose 10.00 uM): 0.030
Z.LYZ.NS (standard z score) ([3]; dose 0.08 uM): 0.786
Dose.FC.LYZ.NS (log 2 fold change, basal lysozyme secretion) ([3]; dose 0.08 uM): 0.090
Z.LYZ.NS (standard z score) ([3]; dose 0.40 uM): 0.462
Dose.FC.LYZ.NS (log 2 fold change, basal lysozyme secretion) ([3]; dose 0.40 uM): 0.053
Z.LYZ.NS (standard z score) ([3]; dose 2.00 uM): 0.411
Dose.FC.LYZ.NS (log 2 fold change, basal lysozyme secretion) ([3]; dose 2.00 uM): 0.047
Z.LYZ.NS (standard z score) ([3]; dose 10.00 uM): 0.263
Dose.FC.LYZ.NS (log 2 fold change, basal lysozyme secretion) ([3]; dose 10.00 uM): 0.030
